Experimental data reported in US11180462B2, “Microbiocidal oxadiazole derivatives” (SYNGENTA PARTICIPATIONS AG, priority 2015, dated 2021).

What was measured:
[1] = tested on: Puccinia recondita f. Sp. Tritici; test: Fungicidal activity against Puccinia recondita f. sp. tritici / wheat / leaf disc preventative (brown rust); format: in vivo; conditions: foliar, 200 ppm in the applied formulation, wheat leaf segments, preventative, compared to untreated control leaf disks, read-out: disease control
How it was run: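 Percent disease control relative to untreated check segments is scored once disease develops, 7 to 9 days after application. Wheat cv. Kanzler segments receive compound spray (200 ppm in formulation) one day before spore inoculation, then sit at 19° C. and 75% rh under 12 h light/12 h dark.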

[2] = tested on: Puccinia recondita f. Sp. Tritici; test: Fungicidal activity against Puccinia recondita f. sp. tritici / wheat / leaf disc curative (brown rust); format: in vivo; conditions: foliar, 24 h, 200 ppm in the applied formulation, wheat leaf segments, curative (applied 1 day after inoculation), compared to untreated control leaf disks, read-out: disease control
How it was run: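 Segments of wheat cv. Kanzler were laid on agar and inoculated with a spore suspension of the rust, then held in darkness at 19° C and 75% relative humidity. One day later the water-diluted formulated compound was applied, with incubation continued under a 12 h light/dark cycle.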

[3] = tested on: Glomerella lagenarium (Colletotrichum lagenarium); test: Fungicidal activity against Glomerella lagenarium (Colletotrichum lagenarium) liquid culture / cucumber / preventative (anthracnose); format: cell-based; conditions: Colletotrichum orbiculare; 20 ppm in the applied formulation; liquid culture (PDB), growth inhibition measured photometrically after 3 to 4 days; compared to untreated control; read-out: disease control
How it was run: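 Percent activity against the untreated check was derived from photometric growth measurements made 2 to 7 days after conidia in potato dextrose broth were combined with compound at 20 ppm. Cultures were kept dark at 24 °C and 96% humidity.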

CCCC(=O)N(Cc1ccc(-c2noc(C(F)(F)F)n2)cc1)C(C)CC (stereo not drawn) [Compound 1.373, N-sec-butyl-N-[[4-[5-(trifluoromethyl)-1,2,4-oxadiazol-3-yl]phenyl]methyl]-butanamide]
≥ 80%: pest or weed control at 200 ppm [1] | pest or weed control at 200 ppm [2] | inhibition of growth at 20 ppm [3]

C#CCOc1ccc(C(=O)N(Cc2ccc(-c3noc(C(F)(F)F)n3)cc2)C2CC2)cc1F [Compound 1.129, N-cyclopropyl-3-fluoro-4-prop-2-ynoxy-N-[[4-[5-(trifluoromethyl)-1,2,4-oxadiazol-3-yl]phenyl]methyl]-benzamide]
≥ 80%: pest or weed control at 200 ppm [1] | pest or weed control at 200 ppm [2] | inhibition of growth at 20 ppm [3]

COCCC(=O)N(OC)C(C)c1ccc(-c2noc(C(F)(F)F)n2)cc1 (stereo not drawn) [Compound 1.260, N,3-dimethoxy-N-[1-[4-[5-(trifluoromethyl)-1,2,4-oxadiazol-3-yl]phenyl]ethyl]-propanamide]
≥ 80%: pest or weed control at 200 ppm [1] | pest or weed control at 200 ppm [2] | inhibition of growth at 20 ppm [3]

O=C(C1CC1)N(Cc1ccc(-c2noc(C(F)(F)F)n2)cc1)CC1CCCO1 (stereo not drawn) [Compound 1.450, N-(tetrahydrofuran-2-ylmethyl)-N-[[4-[5-(trifluoromethyl)-1,2,4-oxadiazol-3-yl]phenyl]methyl]-cyclopropane-carboxamide]
≥ 80%: pest or weed control at 200 ppm [1] | pest or weed control at 200 ppm [2] | inhibition of growth at 20 ppm [3]

COCCN(Cc1ccc(-c2noc(C(F)(F)F)n2)cc1)C(=O)c1ccoc1 [Compound 1.362, N-(2-methoxyethyl)-N-[[4-[5-(trifluoromethyl)-1,2,4-oxadiazol-3-yl]phenyl]methyl]-furan-3-carboxamide]
≥ 80%: pest or weed control at 200 ppm [1] | pest or weed control at 200 ppm [2] | inhibition of growth at 20 ppm [3]

COCC(=O)N(Cc1ccc(-c2noc(C(F)(F)F)n2)cc1)CC1CCCO1 (stereo not drawn) [Compound 1.415, 2-methoxy-N-(tetrahydrofuran-2-ylmethyl)-N-[[4-[5-(trifluoromethyl)-1,2,4-oxadiazol-3-yl]phenyl]methyl]-acetamide]
≥ 80%: pest or weed control at 200 ppm [1] | pest or weed control at 200 ppm [2] | inhibition of growth at 20 ppm [3]

CCC(C)N(Cc1ccc(-c2noc(C(F)(F)F)n2)cc1)C(=O)C1CSC1 (stereo not drawn) [Compound 1.378, N-sec-butyl-N-[[4-[5-(trifluoromethyl)-1,2,4-oxadiazol-3-yl]phenyl]methyl]-thietane-3-carboxamide]
≥ 80%: pest or weed control at 200 ppm [1] | pest or weed control at 200 ppm [2] | inhibition of growth at 20 ppm [3]

O=C(C1CC1)N(Cc1ccc(-c2noc(C(F)(F)F)n2)cc1)Cc1ccco1 [Compound 1.474, N-(2-furylmethyl)-N-[[4-[5-(trifluoromethyl)-1,2,4-oxadiazol-3-yl]phenyl]methyl]-cyclopropane-carboxamide]
≥ 80%: pest or weed control at 200 ppm [1] | pest or weed control at 200 ppm [2] | inhibition of growth at 20 ppm [3]

CCC(C)N(Cc1ccc(-c2noc(C(F)(F)F)n2)cc1)C(=O)C1CC1(F)F (stereo not drawn) [Compound 1.371, 2,2-difluoro-N-sec-butyl-N-[[4-[5-(trifluoromethyl)-1,2,4-oxadiazol-3-yl]phenyl]methyl]-cyclopropane-carboxamide]
≥ 80%: pest or weed control at 200 ppm [1] | pest or weed control at 200 ppm [2] | inhibition of growth at 20 ppm [3]

O=C(C1CCCCO1)N(Cc1ccc(-c2noc(C(F)(F)F)n2)cc1)CC1CCCO1 (stereo not drawn) [Compound 1.411, N-(tetrahydrofuran-2-ylmethyl)-N-[[4-[5-(trifluoromethyl)-1,2,4-oxadiazol-3-yl]phenyl]methyl]-tetrahydropyran-2-carboxamide]
≥ 80%: pest or weed control at 200 ppm [1] | pest or weed control at 200 ppm [2] | inhibition of growth at 20 ppm [3]

CCN(Cc1ccc(-c2noc(C(F)(F)F)n2)cc1)C(=O)N(CC)C1CC1 [Compound 3.89, 1-cyclopropyl-1,3-diethyl-3-[[4-[5-(trifluoromethyl)-1,2,4-oxadiazol-3-yl]phenyl]methyl]urea]
≥ 80%: pest or weed control at 200 ppm [1] | pest or weed control at 200 ppm [2] | inhibition of growth at 20 ppm [3]

CC(=O)N(Cc1ccc(-c2noc(C(F)(F)F)n2)cc1)CC1CCCO1 (stereo not drawn) [Compound 1.451, N-(tetrahydrofuran-2-ylmethyl)-N-[[4-[5-(trifluoromethyl)-1,2,4-oxadiazol-3-yl]phenyl]methyl]-acetate]
≥ 80%: pest or weed control at 200 ppm [1] | pest or weed control at 200 ppm [2] | inhibition of growth at 20 ppm [3]

C#CCN(C)C(=O)N(C)Cc1ccc(-c2noc(C(F)(F)F)n2)cc1 [Compound 3.77, 1,3-dimethyl-1-prop-2-ynyl-3-[[4-[5-(trifluoromethyl)-1,2,4-oxadiazol-3-yl]phenyl]methyl]urea]
≥ 80%: pest or weed control at 200 ppm [1] | pest or weed control at 200 ppm [2] | inhibition of growth at 20 ppm [3]

CCC(C)N(Cc1ccc(-c2noc(C(F)(F)F)n2)cc1)C(=O)C1CC1 (stereo not drawn) [Compound 1.406, N-sec-butyl-N-[[4-[5-(trifluoromethyl)-1,2,4-oxadiazol-3-yl]phenyl]methyl]-cyclopropane-carboxamide]
≥ 80%: pest or weed control at 200 ppm [1] | pest or weed control at 200 ppm [2] | inhibition of growth at 20 ppm [3]

CCN(Cc1ccc(-c2noc(C(F)(F)F)n2)cc1)C(=O)N1CCCO1 [Compound 3.87, N-ethyl-N-[[4-[5-(trifluoromethyl)-1,2,4-oxadiazol-3-yl]phenyl]methyl]-isoxazolidine-2-carboxamide]
≥ 80%: pest or weed control at 200 ppm [1] | pest or weed control at 200 ppm [2] | inhibition of growth at 20 ppm [3]

O=C(C1CCCO1)N(Cc1ccc(-c2noc(C(F)(F)F)n2)cc1)Cc1ccco1 (stereo not drawn) [Compound 1.469, N-(2-furylmethyl)-N-[[4-[5-(trifluoromethyl)-1,2,4-oxadiazol-3-yl]phenyl]methyl]-tetrahydrofuran-2-carboxamide]
≥ 80%: pest or weed control at 200 ppm [1] | pest or weed control at 200 ppm [2] | inhibition of growth at 20 ppm [3]

CON(Cc1ccc(-c2noc(C(F)(F)F)n2)cc1)C(=O)N(C)C1CCC1 [Compound 3.65, 1-cyclobutyl-3-methoxy-1-methyl-3-[[4-[5-(trifluoromethyl)-1,2,4-oxadiazol-3-yl]phenyl]methyl]urea]
≥ 80%: pest or weed control at 200 ppm [1] | pest or weed control at 200 ppm [2] | inhibition of growth at 20 ppm [3]

O=C(C1CSC1)N(Cc1ccc(-c2noc(C(F)(F)F)n2)cc1)CC1CCCO1 (stereo not drawn) [Compound 1.421, N-(tetrahydrofuran-2-ylmethyl)-N-[[4-[5-(trifluoromethyl)-1,2,4-oxadiazol-3-yl]phenyl]methyl]-thietane-3-carboxamide]
≥ 80%: pest or weed control at 200 ppm [1] | pest or weed control at 200 ppm [2] | inhibition of growth at 20 ppm [3]

O=C(C1CCC1)N(Cc1ccc(-c2noc(C(F)(F)F)n2)cc1)Cc1ccco1 [Compound 1.458, N-(2-furylmethyl)-N-[[4-[5-(trifluoromethyl)-1,2,4-oxadiazol-3-yl]phenyl]methyl]-cyclobutane-carboxamide]
≥ 80%: pest or weed control at 200 ppm [1] | pest or weed control at 200 ppm [2] | inhibition of growth at 20 ppm [3]

CON(Cc1ccc(-c2noc(C(F)(F)F)n2)cc1)C(=O)OCCCCl [Compound 2.16, 3-chloropropyl N-methoxy-N-[[4-[5-(trifluoromethyl)-1,2,4-oxadiazol-3-yl]phenyl]methyl]-carbamate]
≥ 80%: pest or weed control at 200 ppm [1] | pest or weed control at 200 ppm [2] | inhibition of growth at 20 ppm [3]

CC=C(C)C(=O)N(CCOC)Cc1ccc(-c2noc(C(F)(F)F)n2)cc1 [Compound 1.330, N-(2-methoxyethyl)-2-methyl-N-[[4-[5-(trifluoromethyl)-1,2,4-oxadiazol-3-yl]phenyl]methyl]-but-2-enamide]
≥ 80%: pest or weed control at 200 ppm [1] | pest or weed control at 200 ppm [2] | inhibition of growth at 20 ppm [3]

CN(Cc1ccc(-c2noc(C(F)(F)F)n2)cc1)C(=O)N1CCCO1 [Compound 3.69, N-methyl-N-[[4-[5-(trifluoromethyl)-1,2,4-oxadiazol-3-yl]phenyl]methyl]-isoxazolidine-2-carboxamide]
≥ 80%: pest or weed control at 200 ppm [1] | pest or weed control at 200 ppm [2] | inhibition of growth at 20 ppm [3]

CC=CC(=O)N(CCOC)Cc1ccc(-c2noc(C(F)(F)F)n2)cc1 [Compound 1.326, N-(2-methoxyethyl)-N-[[4-[5-(trifluoromethyl)-1,2,4-oxadiazol-3-yl]phenyl]methyl]but-2-enamide]
≥ 80%: pest or weed control at 200 ppm [1] | pest or weed control at 200 ppm [2] | inhibition of growth at 20 ppm [3]
